{
  "source": "patent US20050038103A1",
  "about": "“Uses of dorzolamide” (priority 2003, published 2005)",
  "key": {"[1]": {"assay": "Visual fields in a patient with retinitis pigmentosa", "conditions": "for improvement in visual field: gtts (i) ou bid"}, "[2]": {"conditions": "cited from earlier work"}, "[3]": {"conditions": "Sponsel et al., 1997; Harris et al., 1999; cited from earlier work"}, "[4]": {"assay": "Visual acuity (Snellen's chart) in patients with age-related macular degeneration", "conditions": "AMD patients"}, "[5]": {"assay": "Night vision of patients being treated for glaucoma", "assay_type": "in vivo, human"}},
  "data": [
    {"smiles": "CCN[C@H]1C[C@H](C)S(=O)(=O)c2sc(S(N)(=O)=O)cc21", "note": "[dorzolamide]", "values": [
      {"measurement": "safety", "setting": "[1]; gtts (i) bid", "value": "very safe"},
      {"measurement": "improvement in visual field", "setting": "[1]; five weeks", "value": "marked improvement in visual field in the left eye"},
      {"measurement": "improvement in visual field", "setting": "[1]; nine weeks", "value": "still more marked improvement in both eyes"},
      {"measurement": "capillary dye transit in macula and optic nerve head", "setting": "[2]; Harris et al., 1996", "value": "enhance capillary dye transit in macula and optic nerve head"},
      {"measurement": "retinal arteriovenous passage", "setting": "[2]; Harris et al., 1999, 1996, 2001", "value": "accelerate retinal arteriovenous passage"},
      {"measurement": "increase of ocular pulse amplitude", "setting": "[2]; Schmidt et al., 1998", "value": "18-19%"},
      {"measurement": "contrast sensitivity", "setting": "[3]", "value": "enhance contrast sensitivity"},
      {"measurement": "perimetric light sensitivity", "setting": "[3]", "value": "increase perimetric light sensitivity"},
      {"measurement": "safety", "setting": "[4]; gtts (i) bid", "value": "very safe"},
      {"measurement": "improvement in visual acuity (one more line on Snellen's chart)", "setting": "[4]; gtts (i) bid in one eye, one month", "value": "Most patients demonstrated objective (and subjective) improvement in visual acuity in one month"},
      {"measurement": "night vision", "setting": "[5]", "value": "improved the night vision"}
    ]}
  ]
}
